Assay results published in the NIST ThermoML archive (doi:10.1016/j.tca.2014.10.002).
“And” between values parts separate entries of the source, which are not always exact repeats. Equal entries are not always repeated. Numbers after ± are expanded uncertainties.

Key:
[1] = DTA
[2] = molar heat capacity at constant pressure; settings: 101.33 kPa
[3] = Molar enthalpy of transition or fusion; settings: DSC

OC1CCCCCCC1 [cyclooctanol]
Settings	Molar enthalpy of transition or fusion, [3] [kcal/mol]	Triple point temperature, [1] [K]
Crystal 1	0.457 ± 0.0765	296.78 ± 0.42
Crystal 2	0.507 ± 0.0765	263.56 ± 0.39

[2], Crystal 1, Large sample (1 g) DSC
Settings	molar heat capacity at constant pressure
261.1 K	235.9 ± 4.1 J/K/mol
261.23 K	236.1 ± 4.1 J/K/mol
264 K	238.7 ± 4.1 J/K/mol and 238.8 ± 4.1 J/K/mol
267 K	241.8 ± 4.2 J/K/mol and 241.9 ± 4.2 J/K/mol
270 K	245.1 ± 4.2 J/K/mol and 245.3 ± 4.3 J/K/mol
273 K	248.9 ± 4.3 J/K/mol and 249 ± 4.3 J/K/mol
276 K	252.7 ± 4.4 J/K/mol and 252.8 ± 4.4 J/K/mol
279 K	256.9 ± 4.5 J/K/mol
282 K	261.4 ± 4.5 J/K/mol and 261.5 ± 4.5 J/K/mol
283.88 K	264.3 ± 4.6 J/K/mol
284.25 K	265.2 ± 4.6 J/K/mol

[2], Liquid
Settings	molar heat capacity at constant pressure
301.94 K, Large sample (1 g) DSC	295.6 ± 5.1 J/K/mol
302.06 K, Large sample (1 g) DSC	295.8 ± 5.1 J/K/mol
305 K, Large sample (1 g) DSC	299.1 ± 5.2 J/K/mol
310 K, Large sample (1 g) DSC	304.6 ± 5.3 J/K/mol
315 K, Large sample (1 g) DSC	310.1 ± 5.4 J/K/mol and 310 ± 5.4 J/K/mol
318.15 K, Small sample (50 mg) DSC	313.1 ± 5.4 J/K/mol
320 K, Large sample (1 g) DSC	315.1 ± 5.5 J/K/mol
323.14 K, Small sample (50 mg) DSC	318.2 ± 5.5 J/K/mol
325 K, Large sample (1 g) DSC	320.2 ± 5.5 J/K/mol
328.14 K, Small sample (50 mg) DSC	323.1 ± 5.6 J/K/mol
330 K, Large sample (1 g) DSC	325 ± 5.6 J/K/mol and 324.9 ± 5.6 J/K/mol
333.14 K, Small sample (50 mg) DSC	327.7 ± 5.7 J/K/mol
335 K, Large sample (1 g) DSC	329.4 ± 5.7 J/K/mol and 329.3 ± 5.7 J/K/mol
338.14 K, Small sample (50 mg) DSC	332.6 ± 5.8 J/K/mol
340 K, Large sample (1 g) DSC	333.7 ± 5.8 J/K/mol
343.14 K, Small sample (50 mg) DSC	337 ± 5.8 J/K/mol
345 K, Large sample (1 g) DSC	338.4 ± 5.9 J/K/mol and 338.3 ± 5.9 J/K/mol
348.13 K, Small sample (50 mg) DSC	341.1 ± 5.9 J/K/mol
350 K, Large sample (1 g) DSC	343 ± 5.9 J/K/mol and 342.9 ± 5.9 J/K/mol
353.13 K, Small sample (50 mg) DSC	345.4 ± 12 J/K/mol
355 K, Large sample (1 g) DSC	347.1 ± 6 J/K/mol and 347 ± 6 J/K/mol
357.87 K, Large sample (1 g) DSC	349.1 ± 6 J/K/mol
357.94 K, Large sample (1 g) DSC	349.1 ± 6 J/K/mol
358.13 K, Small sample (50 mg) DSC	349.5 ± 12 J/K/mol
363.12 K, Small sample (50 mg) DSC	353.5 ± 12 J/K/mol
366.11 K, Small sample (50 mg) DSC	355.8 ± 12 J/K/mol
369.12 K, Small sample (50 mg) DSC	357.9 ± 12 J/K/mol
372.13 K, Small sample (50 mg) DSC	359.6 ± 12 J/K/mol
375.14 K, Small sample (50 mg) DSC	361.4 ± 12 J/K/mol
378.12 K, Small sample (50 mg) DSC	363 ± 12 J/K/mol
381.14 K, Small sample (50 mg) DSC	364.4 ± 12 J/K/mol
384.12 K, Small sample (50 mg) DSC	365.8 ± 12 J/K/mol
387.13 K, Small sample (50 mg) DSC	366.9 ± 12 J/K/mol
390.11 K, Small sample (50 mg) DSC	367.8 ± 12 J/K/mol
393.12 K, Small sample (50 mg) DSC	368.7 ± 12 J/K/mol
396.14 K, Small sample (50 mg) DSC	369.4 ± 12 J/K/mol
399.12 K, Small sample (50 mg) DSC	370 ± 12 J/K/mol
402.13 K, Small sample (50 mg) DSC	371 ± 12 J/K/mol
405.12 K, Small sample (50 mg) DSC	371.6 ± 12 J/K/mol
408.13 K, Small sample (50 mg) DSC	371.9 ± 12 J/K/mol
411.11 K, Small sample (50 mg) DSC	372.3 ± 12 J/K/mol
414.12 K, Small sample (50 mg) DSC	372.6 ± 12 J/K/mol
417.13 K, Small sample (50 mg) DSC	372.9 ± 12 J/K/mol
420.12 K, Small sample (50 mg) DSC	373.1 ± 12 J/K/mol
423.13 K, Small sample (50 mg) DSC	373.2 ± 12 J/K/mol
426.11 K, Small sample (50 mg) DSC	373.2 ± 12 J/K/mol
429.19 K, Small sample (50 mg) DSC	373.2 ± 12 J/K/mol
432.31 K, Small sample (50 mg) DSC	373.2 ± 12 J/K/mol
435.12 K, Small sample (50 mg) DSC	373.2 ± 12 J/K/mol
438.13 K, Small sample (50 mg) DSC	373 ± 12 J/K/mol
441.14 K, Small sample (50 mg) DSC	372.8 ± 12 J/K/mol
444.13 K, Small sample (50 mg) DSC	372.8 ± 12 J/K/mol
447.14 K, Small sample (50 mg) DSC	372.7 ± 12 J/K/mol
450.12 K, Small sample (50 mg) DSC	372.5 ± 12 J/K/mol
453.13 K, Small sample (50 mg) DSC	372.6 ± 12 J/K/mol
456.14 K, Small sample (50 mg) DSC	372.6 ± 12 J/K/mol
459.13 K, Small sample (50 mg) DSC	372.6 ± 12 J/K/mol
462.14 K, Small sample (50 mg) DSC	373 ± 12 J/K/mol
465.12 K, Small sample (50 mg) DSC	373.5 ± 12 J/K/mol
468.14 K, Small sample (50 mg) DSC	374.1 ± 12 J/K/mol
471.14 K, Small sample (50 mg) DSC	374.6 ± 12 J/K/mol
